Data: patent US20020173662A1, “Parasiticidal pyrazoles” (priority 1998, published 2002)

Test system: not given
Experiment: not given
Conditions: not given

Compound	melting point [°C]
C=C(C)c1nn(-c2c(Cl)cc(C(F)(F)F)cc2Cl)cc1C1CC1(Br)Br (stereo not shown) [Example 1, 4-(2,2-Dibromocyclopropyl)-1-(2,6-dichloro-4-trifluoromethylphenyl)-3-(propen-2-yl)pyrazole]	86.5 to 88.2
FC(F)(F)c1cc(Cl)c(-n2cc(C3CC3(Br)Br)c(C=C(Br)Br)n2)c(Cl)c1 (stereo not shown) [Example 6, 4-(2,2-Dibromocyclopropyl)-3-(2,2-dibromoethenyl)-1-(2,6-dichloro-4-trifluoromethylphenyl)pyrazole]	106 to 107
NC(=O)c1nn(-c2c(Cl)cc(C(F)(F)F)cc2Cl)cc1C1CC1(Br)Br (stereo not shown) [Example 7, 3-Carbamoyl-4-(2,2-dibromocyclopropyl)-1-(2,6-dichloro-4-trifluoromethylphenyl)pyrazole]	186.2 to 187.3
Nc1nn(-c2c(Cl)cc(C(F)(F)F)cc2Cl)cc1C1CC1(Br)Br (stereo not shown) [Example 8, 3-Amino-4-(2,2-dibromocyclopropyl)-1-(2,6-dichloro-4-trifluoromethylphenyl)pyrazole]	124.9 to 126

Test system: adult Stomoxys calcitrans
Experiment: Test for insecticidal activity: topical application to adult flies, mortality at 24 hours
Type: in vivo
Conditions: acetone solution (1 μl) applied to thorax, mortality assessed 24 hours after dosing
Description: Test for Insecticidal Activity Adult flies (Stomoxys calcitrans) are collected and anaesthetized using CO2. An acetone solution (1 μl) containing the test compound is applied directly to the thorax of each fly and then the flies are placed carefully into a 50 ml tube covered with damp gauze to recover from the CO2. Negative controls have acetone (1 μl) dispensed onto them. Mortality is assessed 24 hours after dosing. Table 1 illustrates the in vivo activity of a selection of the compounds of the invention against adult Stomoxys calcitrans. Dosages required to produce 100% mortality are given in the final column as μg/fly.

Compound	Dosage required to produce 100% mortality [μG/FLY]
C=Cc1nn(-c2c(Cl)cc(C(F)(F)F)cc2Cl)cc1C1CC1(Br)Br (stereo not shown) [Example 4, 4-(2,2-Dibromocyclopropyl)-1-(2,6-dichloro-4-trifluoromethylphenyl)-3-ethenylpyrazole]	0.10
FC(F)=Cc1nn(-c2c(Cl)cc(C(F)(F)F)cc2Cl)cc1C1CC1(Br)Br (stereo not shown) [Example 5, 4-(2,2-Dibromocyclopropyl)-1-(2,6-dichloro-4-trifluoromethylphenyl)-3-(2,2-difluoroethenyl)pyrazole]	0.10
FC(F)(F)c1cc(Cl)c(-n2cc(C3CC3(Br)Br)cn2)c(Cl)c1 (stereo not shown) [Example 9, 4-(2,2-Dibromocyclopropyl)-1-(2,6-dichloro-4-trifluoromethylphenyl)pyrazole]	0.05
FC(F)(F)c1cc(Cl)c(-n2cc(C3CC3(Br)Br)c(Br)n2)c(Cl)c1 (stereo not shown) [Example 11, 3-Bromo4-(2,2-dibromocyclopropyl)-1-(2,6-dichloro-4-trifluoromethylphenyl)pyrazole]	0.05

Test system: Boophilus microplus larvae
Experiment: Test for acaricidal activity: treated filter paper envelope, larval mortality
Conditions: larvae in treated filter paper envelope; 25° C.; mortality assessed after 48 hours
Description: Test for Acaricidal Activity
A dose of 10 μg/cm^2 is created by evenly pipetting 0.5 ml of a 1 mg/ml solution of the test compound in a suitable solvent such as acetone or ethanol onto a Whatman No. 1 (Trade Mark) filter paper cut to a size of 8×6.25 cm. When dry, the paper is folded in half, sealed on two sides using a crimping device and placed in a Kilner jar containing a cotton wool pad dampened with water. The jar is then sealed and placed at 25° C. for 24 hours. Next, approximately 50 Boophilus microplus larvae are introduced into the treated paper envelope which is then crimped along the third side to effect a complete seal. The paper envelope is returned to the Kilner jar, which is sealed and placed at 25° C. for a further 48 hours. The papers are then removed and mortality assessed. Negative controls are provided by treating an appropriately cut filter paper with 0.5 ml of solvent only and following the same procedure. Activity at other doses is obtained by varying the concentration of the test solution.
Table 2 illustrates the in vitro activity of a selection of the compounds of the invention against Boophilus microplus larvae. Dosages required to produce 100% mortality are given in the final column as μg/cm^2.

Compound	Dosage required to produce 100% mortality [μg/cm^2]
FC(F)(F)c1cc(Cl)c(-n2cc(C3CC3(Br)Br)c(Cl)n2)c(Cl)c1 (stereo not shown) [Example 10, 3-Chloro-4-(2,2-dibromocyclopropyl)-1-(2,6-dichloro-4-trifluoromethylphenyl)pyrazole]	1.00
FC(F)(F)c1cc(Cl)c(-n2cc(C3CC3(Br)Br)c(Br)n2)c(Cl)c1 (stereo not shown) [Example 11, 3-Bromo4-(2,2-dibromocyclopropyl)-1-(2,6-dichloro-4-trifluoromethylphenyl)pyrazole]	1.00
